Six compounds from patent publication US5348941A, “Stabilizers for fibroblast growth factors” (Merck & Co., Inc., priority 1992, dated 1994) can be followed below.

In series [1] the test system is genetically diabetic C57GBL/Ks- db+/db^+ female mice. Put plainly: In vivo wound healing model (single 2 cm^2 full thickness wound). On the set-up: species or system mouse. To be noted: with aFGF. An excerpt:
The in vivo animal wound healing model employs genetically diabetic c57GBL/Ks- db+/db+ female mice. The assay follows that described by Marsella et al., Wounds: A Compendium of Clinical Research and Practice, 2, (4) July/August 1990, p. 135-147, except that a single 2 cm^2 full thickness wound is used instead of the two 6 mm biopsy wounds described by Marsella. Another difference is that the wounds are covered with a polyurethane dressing. Addic FGF is applied to wounds on days 0, 3 and 7. Matching placebo formulations are used in a second group of animals. Dressings are changed every three to four days, at which time wound perimeters are traced for assessment of healing. Comparison of healing rate va. a placebo control is made and evaluated for statistical significance at the 90% healed stage.
Human aFGF as described above was combined with various stabilizers to evaluate wound healing activity of the stabilized aFGF. The in vivo animal wound healing model employs genetically diabetic C57GBL/Ks- db+/db^+ female mice (Jackson Laboratory). The assay follows that described by Marsella et. al., Wounds: A Compendium of Clinical Research and Practice, 2, (4) July/August 1990, p. […] Comparison of healing rate vs. a placebo control is made and evaluated for statistical significance at the 90% healed stage. […]

Another series deals with acidic FGF (aFGF) (Homo sapiens, UniProt P05230). Put plainly: biochemical. To be noted: for stabilization of aFGF against heat-induced aggregation: 0.5X and 10X ligand, FIGS. 6-8; for Approx. Molar Ratio (ligand to aFGF at 50% inhibition of aggregation): Table 1. An excerpt:
Stabilization of aFGF can be determined by several independent methods including turbidity measurements, spectroscopic techniques, maintenance of protein mass, mitogenic activity and copper catalyzed oxidation. Since acidic fibroblast growth factor is unstable at physiological temperatures (undergoing large structural changes, including aggregation, which results in a loss of mitogenic and wound healing activity), human aFGF stability can be monitored by evaluating the turbidity of the pharmaceutical composition by following the kinetics of temperature induced aggregation of unfolded protein.
The kinetics of protein aggregation (stabilization) are monitored by the degree of light scattering at about OD350 nm using a Perkin Elmer Lambda 6 UV-visible spectrophotometer equipped with a six-cuvette holder. Temperature is controlled by circulating a water/ethylene glycol solution through the cell holder. About 0.9 ml of a PBS solution (6 mM sodium phosphate, 120 mM NaCl, pH 7.2) was placed into a cuvette and incubated at the appropriate temperature within the spectrophotometer. Once equilibrated, 100 μl of a 1 mg/ml aFGF solution containing the appropriate amount of ligand (stabilizer) is added to the cuvette and mixed manually by inversion. The change in optical density at 350 nm over time is continuously monitored. A dead time of 30s was present due to the mixing of the six samples in each experiment.
To examine the interactions between aFGF and heparin, a spectrophotometric turbidity assay was developed. This technique monitors the structural stability of aFGF by following the kinetics of temperature induced aggregation of unfolded protein by measurement of the degree of light scattering (turbidity) at 350 nm. The kinetics of protein aggregation were monitored by the degree of light scattering at 350 nm using a Perkin Elmer Lambda 6 UV-visible spectrophotometer equipped with a six-cuvette holder. Temperature was controlled by circulating a water/ethylene glycol solution through the cell holder. A PBS solution, 0.9 ml, (6 mM phosphate, 120 mM NaCl pH 7.2) was placed into a cuvette and incubated at the appropriate temperature within the spectrophotometer. Once equilibrated, 100 μl of a 1 mg/ml aFGF solution containing the appropriate amount of ligand was added to the cuvette and mixed manually by inversion. The change in optical density at 350 nm over time was continuously monitored. A dead time of 30s was present due to the mixing of the six samples in each experiment.
Samples contained 100 μg/ml aFGF in a PBS buffer at pH 7.2 with the indicated ratio of heparin to aFGF (wt:wt).
Samples contained 100 μg/ml protein in a PBS buffer, pH 7.2 with (a) no heparin, (b) 1.5 μg/ml, (c) 3 μg/ml, (d) 5 μg/ml, (e) 10 μg/ml and (f) 50 μg/ml heparin. Only representative data points are shown for clarity. […] Using the initial linear portion of the slope of turbidity vs. time plots as a measure of the rate of aggregation, the effect of polyanion concentration can be quantitatively characterized. The Y-axis represents the maximum rate of turbidity formation (ΔOD350 nm/min) normalized to sample (a) containing no heparin. The curve is drawn through data points for clarity only. The IC50 is the concentration of ligand at which the rate of aggregation is 50% of the control sample.

Series [2] has as its system BALB/c 3T3 A31 fibroblasts. Put plainly: Fibroblast mitogenic assay ([3H]-thymidine incorporation into DNA). The format is cell-based. The following applies: presence of heparin.
The test system of a further series is plasma. Put plainly: Anticoagulant activity: clotting time (PT / aPTT assay) relative to heparin. The following applies: equal weight of heparin, no aFGF present. The format is biochemical. The protocol:
Clotting times are monitored by either a one-stage plasma prothrombin time assay (PT assay) or an activated partial thromboplastin time assay (aPTT) using an automated optical detection system (coag-a-Mate®-XC) by General Diagnostics. Clotting times are measured in the presence of varying amounts of heparin (0-50 μg heparin/ml plasma) to generate a standard curve and dotting times of other compounds (at equal wt. amounts) are obtained relative to these standardized values.
^(c) Anticoagulant activity is expressed as a fraction of activity
observed with an equal weight of heparin (+ less than 1/10; ++ 1/10 to
1/2; +++ heparin). No aFGF is present during these measurements.
The anticoagulant properties of heparin are well established, so it was of interest to determine the relative anticoagulant properties of the ligands of this study. The anticoagulant effect of these molecules was measured using a dotting time assay (see methods). Clotting times were monitored by either a one-stage plasma prothrombin time assay (PT assay) or an activated partial thromboplastin time assay (aPTT) using an automated optical detection system (coag-a-Mate*-XC) by General Diagnostics. […]

The mark [3] stands for this setting: 40° C., 100 μg/ml aFGF, PBS pH 7.2.

Chain of acidic FGF (aFGF) (P05230 16-155 limits assumed): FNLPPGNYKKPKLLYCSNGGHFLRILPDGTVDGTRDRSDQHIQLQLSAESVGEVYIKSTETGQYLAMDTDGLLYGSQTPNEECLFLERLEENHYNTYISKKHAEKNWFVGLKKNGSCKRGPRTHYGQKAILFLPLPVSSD

With `O=S(=O)(O)OC1C(OS(=O)(=O)O)C(OS(=O)(=O)O)C(OS(=O)(=O)O)C(OS(=O)(=O)O)C1OS(=O)(=O)O` (centres unmarked) [Inositol hexasulfate, inositol hexasulfate], in series [1], the “wound healing efficacy” value was “as efficacious as heparin in stimulating”. Moreover, at acidic FGF (aFGF) (40° C.), the “number of ligand molecules per aFGF (molar ratio) required for stabilization” value is given as “only one or a few ligands per aFGF molecule”, the “stabilization of aFGF against heat-induced aggregation” value (from here on “stabilization of aFGF”) was “stabilize aFGF against heat-induced aggregation” and the “Approx. Molar Ratio (ligand to aFGF at 50% inhibition of aggregation)” value is on record as 0.6. In addition, the IC50 on acidic FGF (aFGF) (40° C., 100 μg/ml aFGF, PBS pH 7.2, read-out: IC50: concentration of ligand at which the rate of heat-induced aggregation of aFGF is 50% of the sample without ligand (converted)) is 4.54 µM.
In the case of `O=P(O)(O)OP(=O)(O)OP(=O)(O)OP(=O)(O)O` [Tetrapolyphosphate], at acidic FGF (aFGF) (40° C.), the “number of ligand molecules per aFGF (molar ratio) required for stabilization” value was “only one or a few ligands per aFGF molecule” and the “Approx. Molar Ratio (ligand to aFGF at 50% inhibition of aggregation)” value is given as 1.2. Further, the “IC50: concentration of ligand at which the rate of heat-induced aggregation of aFGF is 50% of the sample without ligand” value at acidic FGF (aFGF) (setting [3]) is 3 µg/mL. The “mitogenic activity of aFGF” value in series [2] was “showed activity when assayed in the presence of heparin”.
With dextran sulfate, at acidic FGF (aFGF) (40° C.), the “number of ligand molecules per aFGF (molar ratio) required for stabilization” value was “substantially below one”, the “stabilization of aFGF” value is “dramatically stabilize aFGF from heat-induced aggregation” and the “Approx. Molar Ratio (ligand to aFGF at 50% inhibition of aggregation)” value was 0.06. The “IC50: concentration of ligand at which the rate of heat-induced aggregation of aFGF is 50% of the sample without ligand” value against acidic FGF (aFGF) (setting [3]) came to 3 µg/mL.
heparin [reference compound]: at acidic FGF (aFGF) (40° C.), the “number of ligand molecules per aFGF (molar ratio) required for stabilization” value is “substantially below one” and the “Approx. Molar Ratio (ligand to aFGF at 50% inhibition of aggregation)” value is on record as 0.03. Also, the “heparin concentration down to which no detectable aggregation of aFGF was observed” value at acidic FGF (aFGF) (40° C., 100 μg/ml aFGF (1:10 weight ratio of heparin to aFGF)) was “approximately 10 μg/ml”. Moreover, the “IC50: concentration of ligand at which the rate of heat-induced aggregation of aFGF is 50% of the sample without ligand” value against acidic FGF (aFGF) (setting [3]) was 2 µg/mL. Moreover, the “aggregation of aFGF” value on acidic FGF (aFGF) (55° C., 25 minutes, 3-fold excess heparin by weight) was “no aggregation observed after 25 minutes at 55 °C”. For the same compound, the “Anticoagulant Activity of Ligand (% Heparin by Wt)” value in the series with plasma was “+ ++”.
With “low molecular weight heparin [Low MW heparin, reference compound]”, the “IC50: concentration of ligand at which the rate of heat-induced aggregation of aFGF is 50% of the sample without ligand” value against acidic FGF (aFGF) (setting [3]) came to 3 µg/mL. At acidic FGF (aFGF) (40° C.), the “stabilization of aFGF” value is “dramatically stabilize aFGF from heat-induced aggregation” and the “Approx. Molar Ratio (ligand to aFGF at 50% inhibition of aggregation)” value came out at 0.10.
Turning to sulfated β-cyclodextrin, in series [1], the “wound healing efficacy” value is “as efficacious as heparin in stimulating”.
